The target in one assay is T1, hM4 receptors (Homo sapiens, UniProt P08173).
T1 construct: expressed in transfected cells; host or cells: CHO cells
T1 sequence (P08173 1-479): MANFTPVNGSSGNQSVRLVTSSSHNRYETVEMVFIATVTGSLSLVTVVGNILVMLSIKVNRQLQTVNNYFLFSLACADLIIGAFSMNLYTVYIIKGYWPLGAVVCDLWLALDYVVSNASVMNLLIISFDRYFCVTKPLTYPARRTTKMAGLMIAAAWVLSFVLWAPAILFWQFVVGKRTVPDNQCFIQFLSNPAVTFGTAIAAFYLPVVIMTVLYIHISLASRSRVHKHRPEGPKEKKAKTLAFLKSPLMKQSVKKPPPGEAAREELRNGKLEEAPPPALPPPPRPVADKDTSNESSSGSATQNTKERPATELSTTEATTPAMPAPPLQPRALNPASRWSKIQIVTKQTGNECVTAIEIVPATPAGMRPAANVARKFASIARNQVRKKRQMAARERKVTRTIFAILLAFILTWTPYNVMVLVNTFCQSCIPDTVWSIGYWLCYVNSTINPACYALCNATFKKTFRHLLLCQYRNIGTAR
Briefly: Human M4 PAM pERK assay. The class given is cell-based. Conditions: CHO cells expressing hM4; with EC20 of acetylcholine (10 nM final).

A further assay concerns Sprague Dawley rats. Briefly: Amphetamine-evoked hyperlocomotion in rats (open field). The class given is in vivo, rat. Conditions: adult male Sprague Dawley rats, 0.5 mg/kg amphetamine s.c., distance traveled over 60 min after AMP. Here is the method:
Animals: Adult male, Sprague Dawley rats (Envigo, Indianapolis, IN, USA) were housed in a colony maintained at 23° C. with 12 hour light/dark cycles (lights on at 0600 hour). All animals weighed 290-330 g at the beginning of the study and were equally divided into 5 groups (n=8 per group) and received one of the treatment conditions listed below. Animal protocols were approved by an Animal Care and Use Committee.
Behavioral Procedures: Studies were conducted in MedAssociates open field chambers (27.3 cm×27.3 cm×20.3 cm, MedAssociates, St. Albans, VT) in which movement was automatically tracked and recorded by 16 beam arrays. Administration pretreatment of the test article was determined to coincide with Tmax at the time of the amphetamine-evoked session with optimal route of administration. All groups were subcutaneously treated with 0.5 mg/kg amphetamine (AMP). […] Locomotor data (distance traveled) was recorded as 5-minute bins throughout the 90-minute session. […]
Statistical Analysis: Spontaneous locomotion (prior to AMP administration) was calculated as the total distance traveled during the first 30 minutes of the experimental session. AMP-evoked responses were calculated as the total distance traveled during the last 60 minutes of the experimental session which commenced immediately after AMP administration. Locomotor data were analyzed by a one-way ANOVA. […]

One may read the EC50 as the concentration at which the effect is half-maximal. Molecule `Cc1c2c(n(C)c(=O)c1F)CN(C(=O)CC1CC1c1ccc(C(F)(F)F)cc1)C2` (stereo not shown) [Compound I-26] yielded an EC50 at hM4 receptors of less than 100 nM. Moreover, the “Dose Amount of Compound at which rats displayed a reduction in amphetamine-evoked hyperlocomotion activity” value in the assay with Sprague Dawley rats was determined as 10 mg/kg.
At hM4 receptors, `Cc1cc(=O)n(C)c2c1CN(C(=O)CC1CC1c1ccc(C(F)(F)F)cc1)C2` (single isomer, unassigned) [Compound I-7] returned an EC50 of 100 to 500 nM. In the assay on Sprague Dawley rats, the “Dose Amount of Compound at which rats displayed a reduction in amphetamine-evoked hyperlocomotion activity” value worked out at 32 mg/kg.

(Values after US20260209219A1, “SUBSTITUTED TETRAHYDROPYRROLO-PYRIDINONE COMPOUNDS AND THEIR USE IN TREATING MEDICAL CONDITIONS” (Karuna Therapeutics, Inc., priority 2022, published 2026).)
